The test system of one series is PDI. On the set-up: method as in PMID 22565308, PMID 22988091, PMID 27197150, PMID 24070012, PMID 24624466. Conditions: reported PDI inhibitors, Figure 1b; read-out: PDI IC50 measured by the insulin-aggregation assay; cited from earlier work.
The target of the next series is Human rPDI (Homo sapiens, UniProt P07237). Description: Effect of GSH on rPDI inhibition (Di-E-GSSG assay). It counts as biochemical. Conditions: 10 μM compound, 1 mM GSH vs 5 μM DTT. As to the method: (§1) GSH is the major cellular nonprotein thiol, which exists within cells at millimolar concentrations (1–8 mM) while is present extracellularly at only a few micromolar.[53] The high concentrations of intracellular GSH thus may compete with the binding of PDI to covalent PDI inhibitors.[54] […] In this assay, the noncovalent PDI inhibitor isoquercetin was used as a negative control.
Human rPDI, sequence (P07237 18-508): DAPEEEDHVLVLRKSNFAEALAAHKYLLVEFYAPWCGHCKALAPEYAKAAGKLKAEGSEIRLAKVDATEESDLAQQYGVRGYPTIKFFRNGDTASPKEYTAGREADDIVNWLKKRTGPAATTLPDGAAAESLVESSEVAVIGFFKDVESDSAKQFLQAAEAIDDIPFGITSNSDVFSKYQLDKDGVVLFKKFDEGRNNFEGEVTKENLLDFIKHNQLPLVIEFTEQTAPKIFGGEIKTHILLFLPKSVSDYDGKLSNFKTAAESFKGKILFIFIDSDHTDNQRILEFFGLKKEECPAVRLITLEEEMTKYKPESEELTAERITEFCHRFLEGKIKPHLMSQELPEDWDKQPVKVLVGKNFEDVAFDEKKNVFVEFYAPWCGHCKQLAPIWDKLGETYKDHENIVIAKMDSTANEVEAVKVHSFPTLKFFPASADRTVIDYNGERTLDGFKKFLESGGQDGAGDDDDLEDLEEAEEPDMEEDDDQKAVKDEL
Data are mean ± SEM of three independent experiments.

In the next series the test system is glioma U87. Description: Cell viability, resazurin assay, U87. Conditions: Homo sapiens, 24 h, read-out: U87 IC50. (Resazurin is reduced to fluorescent resorufin, in cell work by metabolically active cells.)
Series [1] relates to multiple myeloma RPMI8226. Put plainly: Cell viability, resazurin assay, RPMI8226.
Description: (§3) Cells were maintained in a humidified incubator at 37 °C in 5% CO2, and cell viability was determined with the resazurin assay (Cayman Chemical, USA) after the incubation with compounds for indicated concentrations and times or DMSO as control.[72]
In the next series the target is platelet surface PDI (Homo sapiens, UniProt P07237). Description: Cell surface PDI reductase activity on intact human platelets (Di-E-GSSG assay). Particulars: read-out: Surface PDI IC50; intact human platelets, Di-E-GSSG, 5 μM DTT.
platelet surface PDI, sequence (P07237 18-508): as above
In series [2] the test system is washed human platelets. Put plainly: U46619-induced platelet aggregation. It counts as cell-based. Particulars: Platelet; washed human platelets, U46619 (1 μM). The method in brief: (§2)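 Washed platelets from ACD-anticoagulated blood of healthy donors, stirred at 1200 rpm, 37 °C in a turbidimetric aggregometer. Aggregation triggered by U46619 or collagen, scored as maximal rise in light transmission.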

Series [3] is described as follows: UPLC-MS analysis of compound metabolites in water with or without GSH. Particulars: 37 °C, 30 min. It counts as physicochemical. As to the method:
as §1
Compounds (400 μM) were incubated in water (250 μL) with or without GSH (4 mM) at 37 °C for 30 min. The compound mixture was diluted with methanol (250 μL) and used for UPLC-MS analysis Metabolite analysis was performed on an ACQUITY UPLC I-Class/SQ Detector 2 (Waters, Milford, USA). The reverse phase BEH C18 column (100 mm × 2.1 mm, 1.7 μm, Waters) and VanGuard BEH C18 guard column (5 mm × 2.1 mm, 1.7 μm, Waters) were used. All data were acquired by Empower 3. The mobile phase for LC separation was Millipore water (A) and acetonitrile (B), and the program was as follows: 0.00 min 90% A → 0.50 min 90% A → 6.50 min 5% A → 8.50 min 5% A → 8.60 min 90% A → 9.00 min 90% A; at a rate of 0.4 mL/min for 9.00 min with 5 μL per injection. The temperature of the column oven was maintained at 40 °C. Mass spectrometer parameters were set as follows: cone voltage, 40.0 V, for positive/negative ion mode; desolvation temperature, 200 °C; cone gas flow(N2), 1 L/h; and desolvation gas flow (N2), 650 L/h.

A further series relates to breast cancer MDA-MB-231. Description: Cell viability, resazurin assay, MDA-MB-231. Conditions: Homo sapiens, MDA-MB-231, 24 h, read-out: MDA-MB-231 IC50.
In series [4] the test system is human vascular endothelial EA.hy926 cells. Description: Cell viability, resazurin assay, EA.hy926. Conditions: EA.hy 926, 24 h, read-out: EAhy926 IC50.
Description: as §3
The target of series [5] is purified human recombinant PDI (rPDI) (Homo sapiens, UniProt P07237). Description: Recombinant PDI reductase activity (Di-E-GSSG assay). Particulars: read-out: rPDI IC50; human recombinant PDI, Di-E-GSSG, 5 μM DTT.
purified human recombinant PDI (rPDI), sequence (P07237 18-508): as above
Description: (§4) In this assay, a nonfluorescent substrate, dieosin glutathione disulfide (Di-E-GSSG), was reduced into a fluorescent product eosin-glutathione (E-GSH) by platelet surface PDI in the presence of 5 μM dithiothreitol (DTT).
The subject of series [6] is washed human platelets. Put plainly: Collagen-induced platelet aggregation. Format: cell-based. Conditions: Platelet; washed human platelets, collagen (5 μg/mL). The method in brief:
as §2

Another series deals with lung cancer A549. Description: Cell viability, resazurin assay, A549. Particulars: Homo sapiens, A549, 24 h, read-out: A549 IC50.
Series [7] is described as follows: Parallel artificial membrane permeability assay (PAMPA). Conditions: 50 μM, 25 ℃, 3 h, verapamil = 100%, ranitidine = 0%. An outline of the steps: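 Donor wells held 50 μM compound (DMSO <1% v/v, diluted from 10 mM stocks) in buffer; filter membrane coated with 2% w/v DOPC in n-dodecane. Sandwich incubated 3 h at 25 ℃, then donor and acceptor drug amounts quantified by UV spectra (220–400 nm) against reference standards.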
A general note: The PAMPA barrier holds no transporters, so it reflects passive diffusion.

Molecules are shown by their SMILES.

Consider 3 molecules from PMC10945480 (Journal of Medicinal Chemistry, 2024).

Description for breast cancer MDA-MB-231: as §3
Description for glioma U87: as §3
Description for lung cancer A549: as §3
Description for platelet surface PDI: as §4

As for `N#Cc1cccc(/C=C/C(=O)c2ccc(O)cc2)c1` [BAP-2], the concentration for half-maximal inhibition (IC50) in the series with PDI is 930 nM.
Regarding `CCOC(=O)C1(CCOc2ccccc2)CCN(Cc2ccc(O)c(Cl)c2)CC1` [ML359], in the series with PDI, the IC50 is 250 nM.
Regarding `CC(=O)OC[C@H]1O[C@@H](SC2=C(c3ccc(O)cc3O)C(=O)c3c(O)cccc3C2=O)[C@H](OC(C)=O)[C@@H](OC(C)=O)[C@@H]1OC(C)=O` [Compound 31, 2-(2,4-Dihydroxyphenyl)-3-(2,3,4,6-tetra-O-acetyl-1-thio-β-D-glucopyranose)-8-hydroxynaphthalene-1,4-dione], the “PDI-inhibitory activity in the presence of GSH” value at Human rPDI was “largely reduced by GSH”. For the same molecule, the IC50 in the series on glioma U87 is 7.39 ± 0.22 µM; in series [1] (Homo sapiens, RPMI-8226, 24 h, read-out: RPMI8226 IC50), 3.07 ± 0.29 µM; at platelet surface PDI it was 460 ± 70 nM; in the series on washed human platelets [2], 3.54 ± 0.11 µM; in the series on breast cancer MDA-MB-231, 11.3 ± 1.09 µM; in [4] it was 6.87 ± 0.21 µM. The IC50 was determined as 670 ± 90 nM in series [5], 6.65 ± 1.74 µM with washed human platelets [6] and 12.6 ± 1.51 µM in the series with lung cancer A549. Moreover, the “S.I. (EAhy926/RPMI8226), selectivity index” value in [1] (24 h IC50 ratio) amounted to 2.2. Further, the “stability in aqueous conditions (UPLC-MS)” value in [3] (400 μM in water) is “easily hydrolyzed in aqueous condition”. Moreover, the “GSH adduct formation after GSH treatment (UPLC-MS)” value in [3] (400 μM, GSH 4 mM) was “significant amount of GSH addition product”. Moreover, the “Permeability (%)” value in series [7] is listed as 28.86%.

What is called IC50 is the concentration that gives 50% inhibition.
